Measurements from patent US20090175995A1, “CONTROL OF FLAVOR CHARACTERISTICS OF AND INDICATOR OF FRESHNESS IN FRUIT JUICE” (TROPICANA PRODUCTS, INC., priority 2007, published 2009).
Read-outs that look alike come from different tables or passages of the source.

Columns and labels:
Bitter Taste = test: Bitter taste recognition threshold, trained sensory panel; assay type: in vivo, human
Method: To study the influence of the chirality of C(17) on the sensory activity of these limonoids, bitter threshold concentrations were determined for limonin and C17-epilimonin.
(§1) To make these evaluations, eleven assessors (four women and seven men, age 23-39 years), who participated for at least two years in weekly training sessions, determined taste recognition threshold concentrations in bottled water (pH 5.1) by means of a three-alternative forced-choice method with ascending concentrations of the stimulus following the procedure reported previously in Stark, T.; Barenther, S.; Hofmann, T. (2005) J. Agric. Food Chem. 53:5407-5418.

Astringency Taste = test: Astringency taste threshold, sensory; assay type: in vivo, human
From the text: The inventors have discovered that, as with bitterness, a plurality of compounds present in orange juice below the astringency threshold contributes to the astringent mouth feel of the juice.
as §1

[1] = Incubation of limonin in aqueous solution, formation of isolimonin; assay type: physicochemical; conditions: pH of 3
[2] = Non-enzymatic release of limonin from limonin-17-β-D-glucopyranoside in aqueous solution on storage (HPLC-MS/MS); assay type: physicochemical; conditions: for limonin released from the glucopyranoside: up to 14 weeks in the dark; for limonin released from its precursor (yield): 14 weeks in the dark
Method: To investigate the putative non-enzymatic release of limonin from limonin-17-β-D-glucopyranoside during storage of orange juice, aqueous solutions of the glucopyranoside adjusted to the pH value of a freshly squeezed orange juice (pH 3.5) or to the range of pH values found for orange juice concentrates (pH 2.0 and 3.0) were held at 20° C. for up to 14 weeks in the dark. At regular time intervals, aliquots were withdrawn from the model solutions and analyzed for the amount of limonin liberated from the glucopyranoside by means of HPLC-MS/MS operating in the MRM mode. […] For example, 0.85% mol of limonin was released from the glucopyranoside when maintained at pH 2.0, whereas at pH 3.5 only 0.25% of the bitter compound was generated.
In order to investigate the influence of the temperature on limonin generation, aqueous solutions of the glucopyranoside adjusted to pH 3.0 were maintained at 4, 20, and 30° C. for up to 14 weeks in the dark. At regular time intervals, the amounts of limonin were determined by means of HPLC-MS/MS operating in the MRM mode. […] For example, limonin was released from its precursor in a yield of nearly 4.0% when incubated at 30° C., whereas only 0.2% of the bitter compound was detectable after storing the precursor solution at 4° C. for 14 weeks.
In particular, aqueous solutions of limonin-17-β-D-glucopyranoside (0.35 mg/L) adjusted to pH value of 2.0, 3.0, and 3.5, respectively, by adding trace amounts of hydrochloric acid (1 mol/L) were maintained at different temperatures (4, 20, 30° C.) for up to 14 weeks in closed vials in the dark. At regular time intervals, samples (5 μL) were withdrawn with a syringe and were analyzed for the generation of limonin by means of LC-MS/MS on a Synergi Fusion, 150×2 mm i.d., 4 μm column (Phenomenex). To achieve this, chromatography was performed with a flow rate of 250 μL/min starting with a mixture (80/20, v/v) of 0.1% aqueous formic acid and acetonitrile, increasing the acetonitrile content to 40% within 10 min, then to 80% within 5 min, held for 5 min, and, finally, to 100% within 5 min. Using negative electrospray ionization, limonin was analyzed in the multiple reaction monitoring (MRM) mode using the mass transition m/z 469→229. Quantitative analysis was performed by comparing the peak areas obtained for the mass trace with those of defined standard solutions of limonin in methanol.

[3] = Homo sapiens; read-out: Bitter Taste Threshold
[4] = Homo sapiens; read-out: Astringency Taste Threshold

Molecule | Bitter Taste Threshold (Bitter Taste; in vivo) [µmol/L] | Astringency Taste Threshold (Astringency Taste; in vivo) [µmol/L] | minimal effective concentration (Bitter Taste; [3]) [µM] | minimal effective concentration (Astringency Taste; [4]) [µM] | other results
5,6,7,3′,4′-pentamethoxyflavoneglucoside | 61 | 21 | – | – | –
5,6,7,8,3′,4′-hexamethoxyflavoneglucoside | 78 | 20 | – | – | –
COc1ccc(-c2oc3cc(OC)c(OC)c(OC)c3c(=O)c2OC)cc1OC [3,5,6,7,3′,4′-hexamethoxyflavone] | – | – | 19 | 9 | –
COc1ccc(-c2oc3c(OC)c(OC)c(OC)c(OC)c3c(=O)c2OC)cc1OC [3,5,6,7,8,3′,4′-heptamethoxyflavone] | – | – | 24 to 31 | 4 to 5 | –
COc1ccc(-c2oc3c(OC)c(OC)cc(OC)c3c(=O)c2OC)cc1OC [3,5,7,8,3′,4′-hexamethoxyflavone] | – | – | > 250 | 125 | –
COc1cc(-c2cc(=O)c3c(OC)c(OC)c(OC)c(OC)c3o2)ccc1O [4′-hydroxy-3′,5,6,7,8-pentamethoxyflavone] | – | – | 25 | 6 | –
COc1ccc(-c2oc3cc(OC)c(OC)c(OC)c3c(=O)c2O[C@@H]2O[C@H](CO)[C@@H](O)[C@H](O)[C@H]2O)cc1OC [5,6,7,3′,4′-pentamethoxy-flavone-3-O-β-D-glucopyranoside] | 61 | 21 | – | – | –
COc1ccc(-c2cc(=O)c3c(OC)c(OC)c(OC)cc3o2)cc1OC [5,6,7,3′,4′-pentamethoxyflavone] | – | – | 56 | 24 | –
COc1ccc(-c2cc(=O)c3c(OC)c(OC)c(OC)cc3o2)cc1 [5,6,7,4′-tetramethoxyflavone] | – | – | – | – | minimal effective concentration (Astringency Taste; Homo sapiens, read-out: Astringency Taste Threshold): 31 µM
COc1ccc(-c2oc3c(OC)c(OC)c(OC)c(OC)c3c(=O)c2O[C@@H]2O[C@H](CO)[C@@H](O)[C@H](O)[C@H]2O)cc1OC [5,6,7,8,3′,4′-Hexamethoxyflavone-3-O-β-D-glucopyranoside] | 78 | 20 | – | – | –
COc1ccc(-c2cc(=O)c3c(OC)c(OC)c(OC)c(OC)c3o2)cc1OC [5,6,7,8,3′,4′-hexamethoxyflavone] | – | – | 103 | 51 | –
COc1ccc(-c2cc(=O)c3c(OC)c(OC)c(OC)c(OC)c3o2)cc1 [5,6,7,8,4′-pentamethoxyflavone] | – | – | 93 | 19 | –
COc1ccc(-c2cc(=O)c3c(OC)cc(OC)c(OC)c3o2)cc1OC [5,7,8,3′,4′-pentamethoxyflavone] | – | – | 32 | 13 | –
COc1ccc(-c2cc(=O)c3c(OC)cc(OC)c(OC)c3o2)cc1 [5,7,8,4′-tetramethoxyflavone] | – | – | > 120 | 44 | –
COc1ccc2c(=O)cc(-c3ccc(OC)c(OC)c3)oc2c1 [7,3′,4′-trimethoxyflavone] | – | – | > 400 | 15 | –
COc1ccc(-c2cc(=O)c3ccc(OC)c(OC)c3o2)cc1OC [7,8,3′,4′-tetramethoxyflavone] | – | – | > 400 | 44 | –
CC1(C)OC(=O)C[C@H](O)[C@]2(C)[C@H]3CC[C@@]4(C)[C@H](c5ccoc5)OC(=O)[C@H]5O[C@]54[C@]3(C)C(=O)C[C@@H]12 [Deacetylnomilin] | >106 | 13.2 | – | – | –
CC1(C)O[C@H]2CC(=O)OC[C@]23[C@H]2CC[C@@]4(C)[C@H](c5ccoc5)OC(=O)[C@H]5O[C@]54[C@]2(C)C(=O)C[C@@H]13 [Limonin, reference compound] | – | – | 4 | 4 | bitter threshold concentration (Bitter Taste; bottled water pH 5.1, three-alternative forced-choice, eleven assessors): 4.0 µmol/L; times more bitter than caffeine (Bitter Taste; relative to caffeine): ~200 times; times more bitter than catechin (Bitter Taste; relative to catechin): 150 times; formation of isolimonin on incubation (direct epimerization) [1]: does not produce significant quantity of isolimonin
CC1(C)O[C@H]2CC(=O)OC[C@]23[C@H]2CC[C@@](C)([C@@H](O[C@@H]4O[C@H](CO)[C@@H](O)[C@H](O)[C@H]4O)c4ccoc4)[C@@]4(O[C@@H]4C(=O)O)[C@]2(C)C(=O)C[C@@H]13 [Limonin-17-β-D-glucopyranoside] | 106 | 17 | – | – | limonin released from the glucopyranoside ([2]; pH 2.0, 20° C.): 0.85 % mol; limonin released from its precursor (yield) ([2]; pH 3.0, 4° C.): 0.2%; limonin released from its precursor (yield) ([2]; pH 3.0, 30° C.): ~4.0%; limonin released from the glucopyranoside ([2]; pH 3.5, 20° C.): 0.25%
CC(=O)O[C@H]1CC(=O)OC(C)(C)[C@@H]2CC(=O)[C@]3(C)[C@H](CC[C@@]4(C)[C@H](c5ccoc5)OC(=O)[C@H]5O[C@]543)[C@@]12C [Nomilin] | – | – | – | – | minimal effective concentration (Bitter Taste; Homo sapiens, read-out: Bitter Taste Threshold): 13 µM; times more bitter than caffeine (Bitter Taste; relative to caffeine): ~150 times; times more bitter than catechin (Bitter Taste; relative to catechin): 45 times
C17-epilimonin [Isolimonin] | – | – | – | – | bitter threshold concentration (Bitter Taste; water; bottled water pH 5.1, three-alternative forced-choice, eleven assessors): 10.0 µg/L; Astringency Taste Threshold (Astringency Taste): 10 mg/L
Deacetylnomilinic acid-17-β-D-glucopyranoside | 68 | 27 | – | – | –
Epiisoobacunoic acid 17-β-D-glucopyranoside | 42 | 16 | – | – | –
Nomilin acid β-glpc | >800 | – | – | – | –
Nomilin β-glpc | >700 | – | – | – | –
Obacunon β-glpc | 49 | – | – | – | –
